# Assay results taken from US20120004281A1, “RNA Interference Mediated Inhibition of the Nerve Growth Factor Beta Chain (NGFB) Gene Expression Using Short Interfering Nucleic Acid (siNA)” (Merck Sharp & Dohme Corp, priority 2009, published 2012).
# [invAb] = inverted abasic unit; m = 2'-O-methyl; r = 2'-OH (RNA); f = 2'-fluoro
# System: NGFβ mRNA
# Assay: NGFβ mRNA knock-down in Calu-1 cells (RNAiMax transfection, Taqman RT-PCR)
# Type: cell-based, human
# Conditions: human Calu-1 cells, 10 nM siNA, 24 hrs post-transfection, relative to non-targeting control, normalized to GAPDH
# Description: Calu-1 (human; ATCC cat# HTB-54): Cells were cultured at 37° C. in the presence of 5% CO2 and grown in McCoy's 5a medium supplemented with fetal bovine serum at a final concentration of 10% and 100 μg/mL of streptomycin and 100 U/mL penicillin.
# All transfections were performed using RNAiMax (Invitrogen Cat# 13778-150) as per the manufacturer's instructions.
# Cells were plated in all wells of a tissue-culture treated, 96-well plate at a final count of 5,000 cells/well in […], of appropriate culture media. Cells were cultured for 24 hours after plating at 37° C. in the presence of 5% CO2.
# After 24 hours, complexes containing siNA and RNAiMax were created as follows: A solution of RNAiMax diluted 33-fold in OPTI-MEM was prepared. In parallel, solutions of the siNAs for testing were prepared to a final concentration of 120 nM in OPTI-MEM. After incubation of RNAiMax/OPTI-MEM solution at room temperature for 5 min, an equal volume of the siRNA solution and the RNAiMax solution were added together for each of the siNAs.
# This solution was incubated at room temperature for 20 minutes. After incubation, 20 uL of the solution was added to each of the relevant wells.
# The final concentration of siNA in each well was 10 nM and the final volume of RNAiMax in each well was 0.3u1.
# The time of incubation with the RNAiMax-siNA complexes was 24 hours, unless otherwise indicated. There was no change in media between the transfection and harvesting of the cells unless otherwise indicated.
# Dose response curves were carried out in a similar fashion in 96-well plates, while maintaining a constant amount of RNAiMax in each transfection.
# RNA was extracted from a 96-well plate using the TaqMan® Gene Expression Cells-to-CT™ Kit (Cat# 4399002) with a modified protocol. Briefly, a 60 uL (1 plate) or 110 uL (2 plates) of the Lysis Solution with DNase I was dispensed into each well of the Lysis Buffer Plate (twin.tec full skirt plate). The lysis buffer and stop plates were stored at 4° C. until the cells were washed.
# The plate was spun at 1100 rpm for 5 minutes. The culture medium was aspirated and discarded from the wells of the culture plate. The lysis was performed automatically using a BioMek FX instrument and method. After the Biomek method was completed, the lysis plate was incubated for 2 min. at room temperature. The lysis plate can be stored for 2 hours at 4° C., or at −20° C. or −80° C. for two months.
# Each well of the reverse transcription plate required 10 uL of 2× reverse transcriptase Buffer, luL of 20× reverse transcription enzyme and 2 uL of nuclease-free water. The reverse transcription master mix was prepared by mixing 2× reverse transcription buffer, 20× reverse transcription enzyme mix, and nuclease-free water. 13 uL of the reverse transcription master mix was dispensed into each well of the reverse transcription plate (semi-skirted). A separate reverse transcription plate was prepared for each cell plate. The plate was loaded onto a Biomek NX or Biomek FX Dual-96 and the Biomek method was run. The program is programmed to automatically added 7 uL of lysate from the cell lysis procedure described above into each well of the reverse transcription plate. The plate is sealed and spun on a centrifuge (1000 rpm for 30 seconds) to settle the contents to the bottom of the reverse transcription plate. The plate is placed in a thermocycler at 37° C. for 60 min, 95° C. for 5 min, and 4° C. until the plate is removed from the thermocycler. Upon removal, if not used immediately, the plate was frozen at −20° C.
# A series of probes and primers were used to detect the various mRNA transcripts of the genes of NGFβ, BDNF and GAPDH in human cell lines. All the Taqman probes and primers for the experiments here-in described were supplied as pre-validated sets by Applied Biosystems, Inc. (see Table 3). The assays were performed on an ABI 7900 instrument, according to the manufacturer's instructions. […]
row,Substance,% KD in CaLu-1 Cells [%]
1,"25402-DC: siNA duplex, NGFβ target site 651; sense B GAGAGGuGAAcAuuAAcAA TTB (SEQ ID NO: 29), antisense UUGuuAAuGuucAccucucUU (SEQ ID NO: 30) (sense GAGAGGUGAACAUUAACAATT; antisense UUGUUAAUGUUCACCUCUCUU; sense: DNA at AGT, 2'-fluoro at CU, [invAb] at 5' end, 3' end, backbone not given here; antisense: sugars from the 5' end rrrffmmfmfffmffffffmm, backbone not given here)",53
2,"25403-DC: siNA duplex, NGFβ target site 958; sense B ccuGuAAAuuAuuuuAAAu TTB (SEQ ID NO: 31), antisense AUUuAAAAuAAuuuAcAGGUU (SEQ ID NO: 32) (sense CCUGUAAAUUAUUUUAAAUTT; antisense AUUUAAAAUAAUUUACAGGUU; sense: DNA at AGT, 2'-fluoro at CU, [invAb] at 5' end, 3' end, backbone not given here; antisense: sugars from the 5' end rrrfmmmmfmmfffmfmmmmm, backbone not given here)",60
3,"25404-DC: siNA duplex, NGFβ target site 43; sense B cAGuGGucGuGcAGuccAA TTB (SEQ ID NO: 33), antisense UUGGAcuGcAcGAccAcuGUU (SEQ ID NO: 34) (sense CAGUGGUCGUGCAGUCCAATT; antisense UUGGACUGCACGACCACUGUU; sense: DNA at AGT, 2'-fluoro at CU, [invAb] at 5' end, 3' end, backbone not given here; antisense: sugars from the 5' end rrrmmffmfmfmmffmffmmm, backbone not given here)",33
4,"25405-DC: siNA duplex, NGFβ target site 124; sense B cAAGGGAGcAGcuuucuAu TTB (SEQ ID NO: 35), antisense AUAGAAAGcuGcucccuuGUU (SEQ ID NO: 36) (sense CAAGGGAGCAGCUUUCUAUTT; antisense AUAGAAAGCUGCUCCCUUGUU; sense: DNA at AGT, 2'-fluoro at CU, [invAb] at 5' end, 3' end, backbone not given here; antisense: sugars from the 5' end rrrmmmmmffmfffffffmmm, backbone not given here)",31
5,"25406-DC: siNA duplex, NGFβ target site 755; sense B cAcuGGAAcucAuAuuGuA TTB (SEQ ID NO: 37), antisense UACAAuAuGAGuuccAGuGUU (SEQ ID NO: 38) (sense CACUGGAACUCAUAUUGUATT; antisense UACAAUAUGAGUUCCAGUGUU; sense: DNA at AGT, 2'-fluoro at CU, [invAb] at 5' end, 3' end, backbone not given here; antisense: sugars from the 5' end rrrmmfmfmmmffffmmfmmm, backbone not given here)",34
6,"25407-DC: siNA duplex, NGFβ target site 518; sense B cAcAGGAGcAAGcGGucAu TTB (SEQ ID NO: 39), antisense AUGAccGcuuGcuccuGuGUU (SEQ ID NO: 40) (sense CACAGGAGCAAGCGGUCAUTT; antisense AUGACCGCUUGCUCCUGUGUU; sense: DNA at AGT, 2'-fluoro at CU, [invAb] at 5' end, 3' end, backbone not given here; antisense: sugars from the 5' end rrrmffmfffmfffffmfmmm, backbone not given here)",47
7,"25408-DC: siNA duplex, NGFβ target site 653; sense B GAGGuGAAcAuuAAcAAcA TTB (SEQ ID NO: 41), antisense UGUuGuuAAuGuucAccucUU (SEQ ID NO: 42) (sense GAGGUGAACAUUAACAACATT; antisense UGUUGUUAAUGUUCACCUCUU; sense: DNA at AGT, 2'-fluoro at CU, [invAb] at 5' end, 3' end, backbone not given here; antisense: sugars from the 5' end rrrfmffmmfmfffmffffmm, backbone not given here)",26
8,"25409-DC: siNA duplex, NGFβ target site 468; sense B cucAGGAucuGGAcuucGA TTB (SEQ ID NO: 43), antisense UCGAAGuccAGAuccuGAGUU (SEQ ID NO: 44) (sense CUCAGGAUCUGGACUUCGATT; antisense UCGAAGUCCAGAUCCUGAGUU; sense: DNA at AGT, 2'-fluoro at CU, [invAb] at 5' end, 3' end, backbone not given here; antisense: sugars from the 5' end rrrmmmfffmmmffffmmmmm, backbone not given here)",52
9,"25410-DC: siNA duplex, NGFβ target site 451; sense B ccGuGAAGcuGcAGAcAcu TTB (SEQ ID NO: 45), antisense AGUGucuGcAGcuucAcGGUU (SEQ ID NO: 46) (sense CCGUGAAGCUGCAGACACUTT; antisense AGUGUCUGCAGCUUCACGGUU; sense: DNA at AGT, 2'-fluoro at CU, [invAb] at 5' end, 3' end, backbone not given here; antisense: sugars from the 5' end rrrmfffmfmmffffmfmmmm, backbone not given here)",70
10,"25411-DC: siNA duplex, NGFβ target site 101; sense B uccGGAcccAAuAAcAGuu TTB (SEQ ID NO: 47), antisense AACuGuuAuuGGGuccGGAUU (SEQ ID NO: 48) (sense UCCGGACCCAAUAACAGUUTT; antisense AACUGUUAUUGGGUCCGGAUU; sense: DNA at AGT, 2'-fluoro at CU, [invAb] at 5' end, 3' end, backbone not given here; antisense: sugars from the 5' end rrrfmffmffmmmfffmmmmm, backbone not given here)",54
11,"25412-DC: siNA duplex, NGFβ target site 267; sense B cccAAGcccAcuGGAcuAA TTB (SEQ ID NO: 49), antisense UUAGuccAGuGGGcuuGGGUU (SEQ ID NO: 50) (sense CCCAAGCCCACUGGACUAATT; antisense UUAGUCCAGUGGGCUUGGGUU; sense: DNA at AGT, 2'-fluoro at CU, [invAb] at 5' end, 3' end, backbone not given here; antisense: sugars from the 5' end rrrmfffmmfmmmfffmmmmm, backbone not given here)",−3
12,"25414-DC: siNA duplex, NGFβ target site 615; sense B ccAcAGAcAucAAGGGcAA TTB (SEQ ID NO: 53), antisense UUGcccuuGAuGucuGuGGUU (SEQ ID NO: 54) (sense CCACAGACAUCAAGGGCAATT; antisense UUGCCCUUGAUGUCUGUGGUU; sense: DNA at AGT, 2'-fluoro at CU, [invAb] at 5' end, 3' end, backbone not given here; antisense: sugars from the 5' end rrrfffffmmfmfffmfmmmm, backbone not given here)",61
